Assays:
[1] = system: lysosomes of COS-7 cells; test: Time lapse imaging of lysosomal membrane potential upon ATP addition; format: cell-based, Monkey; conditions: COS-7, 100 µM ATP
From the text: Time lapse Imaging: […] Image acquisition was briefly paused at indicated time for addition of chemicals (ML-SA1, Baf-A1, ATP or DMSO) to cells. To minimize bleaching, time-lapse imaging was done at single focal plane. Z-drift compensator module from IX83 was applied to minimize out of focus drift during time lapse imaging. The extracellular ATP induced cytosolic calcium increase was imaged by labeling COS-7 cells with cell permeable calcium sensitive dye Fluo4-AM ester. Time-lapse imaging of Fluo-4 labeled COS-7 cells were acquired using a 480/20 band pass excitation filter, 520/40 band pass emission filter and 89016 dichroic, at 1 s interval for 20 mins.

[2] = system: cytosolic Ca^2+ in COS-7 cells; test: Cytosolic calcium imaging with Fluo-4 AM upon ATP addition; format: cell-based, Monkey; conditions: COS-7, 100 µM ATP
[3] = system: lysosomes in HEK 293T cells; test: In situ lysosomal membrane potential measurement with Voltair^IM, with and without pharmacological treatment; format: cell-based, Human; conditions: for ΔVLys: HEK 293T
[4] = system: early endosomes; test: Time-lapse imaging of early endosome membrane potential upon TRPML1 activation; format: cell-based; conditions: ML-SA1
[5] = system: trans Golgi network in HEK 293 cells expressing scFv-furin; test: Organellar membrane potential measurement, trans Golgi network; format: cell-based, Human; conditions: V-ATPase inhibition (bafilomycin A1 500 nM per FIG. 4)
[6] = system: recycling endosomes in HEK 293T cells; test: Organellar membrane potential measurement, recycling endosomes; format: cell-based, Human; conditions: 500 nM bafilomycin A1
[7] = biological target: T1, human macrophage scavenger receptor (hMSR1) (Homo sapiens, UniProt P21757); test: Competition assay of DNA device uptake with maleylated BSA; format: cell-based
T1 construct: expressed in transfected cells; host or cells: HEK 293T
T1 sequence (P21757 1-451): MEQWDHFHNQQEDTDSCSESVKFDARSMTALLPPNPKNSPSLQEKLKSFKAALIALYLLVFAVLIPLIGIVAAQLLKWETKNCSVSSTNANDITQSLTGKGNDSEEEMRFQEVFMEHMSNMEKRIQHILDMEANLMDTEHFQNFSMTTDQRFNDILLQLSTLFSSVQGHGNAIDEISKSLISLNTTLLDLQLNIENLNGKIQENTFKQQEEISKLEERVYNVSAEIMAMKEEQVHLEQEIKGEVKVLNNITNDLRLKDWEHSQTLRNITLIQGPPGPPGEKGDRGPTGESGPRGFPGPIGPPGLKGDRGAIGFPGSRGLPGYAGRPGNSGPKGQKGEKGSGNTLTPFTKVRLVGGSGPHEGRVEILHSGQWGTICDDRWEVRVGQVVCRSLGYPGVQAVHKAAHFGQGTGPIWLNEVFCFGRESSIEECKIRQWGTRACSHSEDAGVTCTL
Method: Competition assay: HEK 293T cells transfected with hMSR1-CFP were washed with 1X PBS, pH 7.4 prior to labeling with the DNA device. Cells were incubated with 20 µM maleylated BSA (mBSA) for 15 min, followed by a 20 min pulse of 500 nM DNA device and 20 µM mBSA to allow internalization by receptor mediated endocytosis. Control cells were washed and pulsed for 20 mins in 500 nM DNA device without mBSA. Cells were then washed three times with 1× PBS and chased for 30 mins in complete DMEM media. Complete media was replaced with Opti-MEM solution (Thermofisher) and imaged by widefield microscopy for quantification and confocal microscopy for representative images. Whole cell intensities in the Atto647N channel were quantified for cells expressing hMSR1-CFP observed in CFP channel. The mean intensity from three different experiments were normalized against the no mBSA control, for n~50 cells.

[8] = system: endogenous scavenger receptor; test: Competition assay of DNA nanodevice uptake in cell types expressing endogenous scavenger receptor; format: cell-based; conditions: THP-1, BHK-21, HDF, RAW 264.7, T-47D, COS-7
[9] = in the presence of Torin-1 and trans-ned-19 1 µM

Nc1ncnc2c1ncn2[C@@H]1O[C@H](COP(=O)(O)OP(=O)(O)OP(=O)(O)O)[C@@H](O)[C@H]1O [ATP]
acute hyperpolarization of the lysosomal membrane [1]: +75 mV
duration of lysosomal hyperpolarization [1]: ~ 100 seconds
time from maximal cytosolic Ca^2+ elevation to lysosomal hyperpolarization [1]: ~ 80 seconds
time to maximum cytosolic Ca^2+ level after addition [2]: ~ 5 seconds

CC1CC(C)(C)N(C(=O)CN2C(=O)c3ccccc3C2=O)c2ccccc21 (stereo not shown) [ML-SA1]
ΔVLys ([3]; ML-SA1 20 µM, TRPML1 activator): 90 mV
membrane potential in early endosomes (VEE) upon treatment [4]: stayed constant

O=c1[nH]c2cc(C(F)(F)F)ccc2n1-c1cc(C(F)(F)F)ccc1O [NS1619]
ΔVLys ([3]; ML-SA1 as well as BK channel agonist NS1619): 50 mV

CCC(=O)N1CCN(c2ccc(-n3c(=O)ccc4cnc5ccc(-c6cnc7ccccc7c6)cc5c43)cc2C(F)(F)F)CC1 [Torin-1]
reduction of VLys from the resting VLys ([3]; Torin-1 1 µM, mTORC1 inhibition): ~60 mV

CO/C1=C\C(C)=C\[C@@H](C)[C@@H](O)[C@@H](C)C/C(C)=C/C=C/[C@H](OC)[C@@H]([C@@H](C)[C@@H](O)[C@H](C)[C@@]2(O)C[C@@H](O)[C@H](C)[C@@H](C(C)C)O2)OC1=O [bafilomycin A1]
membrane potential remaining across the TGN after V-ATPase inhibition [5]: +75 mV
change of VRE upon V-ATPase inhibition [6]: no change
reduction of VLys from the resting membrane potential ([3]; bafilomycin A1 500 nM, V-ATPase inhibition): ~ 100 mV

COc1ccc([C@H]2N[C@H](C(=O)O)Cc3c2[nH]c2ccccc32)cc1CN1CCN(c2ccccc2F)CC1 [trans-ned-19]
VLys [3, 9]: +80 mV
ΔVLys due to TPC2 channel inhibition [3, 9]: 35 mV

maleylated BSA: a strong ligand for scavenger receptors
effect on endocytosis of Voltair^PM ([7]; CFP-hMSR1 transfected HEK 293T, 30eq. mBSA, 500 nM Voltair^PM, 30 mins): blocks endocytosis
effect on uptake of Voltair^IM ([7]; HEK 293T cells expressing hMSR1-CFP): efficiently competed out
effect on DNA nanodevice uptake [8]: decreases uptake

Reference: patent US20230324370A1, “A DNA-Based Voltmeter for Organelles” (The University of Chicago, priority 2020, published 2023)
